Legend:
Experiment in all cases: ActivX kinase probe assay (human PBMC)
Type in all cases: binding
ABL, ARG = system: ABL, ARG
AKT2, AKT3 = system: AKT2, AKT3
AMPKa1 = AMPKa1 (Homo sapiens (Human), UniProt Q13131); settings: AMPKa1, read-out: percent inhibition
AMPKa1, AMPKa2 = system: AMPKa1, AMPKa2
BRAF = BRAF (Homo sapiens (Human), UniProt P15056); settings: BRAF, read-out: percent inhibition
CaMK2d = CaMK2d (Homo sapiens (Human), UniProt Q13557); settings: CaMK2d, read-out: percent inhibition
CaMK2g = CaMK2g (Homo sapiens (Human), UniProt Q13555); settings: CaMK2g, read-out: percent inhibition
DGKA = DGKA (Homo sapiens (Human), UniProt P23743); settings: DGKA, read-out: percent inhibition
Chain of DGKA (P23743 whole entry): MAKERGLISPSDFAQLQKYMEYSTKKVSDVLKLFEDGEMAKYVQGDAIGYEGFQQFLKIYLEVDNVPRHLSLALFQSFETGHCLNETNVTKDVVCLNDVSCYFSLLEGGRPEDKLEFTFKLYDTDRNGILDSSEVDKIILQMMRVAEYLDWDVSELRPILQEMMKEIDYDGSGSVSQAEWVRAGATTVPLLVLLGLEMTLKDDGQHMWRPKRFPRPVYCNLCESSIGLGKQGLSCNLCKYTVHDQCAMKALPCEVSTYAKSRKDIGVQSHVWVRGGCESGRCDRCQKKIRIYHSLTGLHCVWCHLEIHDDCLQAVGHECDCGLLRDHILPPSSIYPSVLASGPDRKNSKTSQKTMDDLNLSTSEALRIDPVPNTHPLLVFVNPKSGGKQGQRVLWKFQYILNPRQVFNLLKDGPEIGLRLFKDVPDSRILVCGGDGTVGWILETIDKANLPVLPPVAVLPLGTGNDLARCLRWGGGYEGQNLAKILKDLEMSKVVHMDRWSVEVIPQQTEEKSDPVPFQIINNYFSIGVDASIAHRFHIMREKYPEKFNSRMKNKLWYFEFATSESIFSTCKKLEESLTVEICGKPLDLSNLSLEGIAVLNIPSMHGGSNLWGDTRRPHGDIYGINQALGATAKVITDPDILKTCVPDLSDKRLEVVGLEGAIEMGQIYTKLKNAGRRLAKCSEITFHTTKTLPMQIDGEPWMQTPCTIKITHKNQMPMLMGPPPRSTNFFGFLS

EphA1 = EphA1 (Homo sapiens (Human), UniProt P21709); settings: EphA1, read-out: percent inhibition
Erk5 = Erk5 (Homo sapiens (Human), UniProt Q13164); settings: Erk5, read-out: percent inhibition
FGR = FGR (Homo sapiens (Human), UniProt P09769); settings: FGR, read-out: percent inhibition
GCN2 = GCN2 (Homo sapiens (Human), UniProt Q9P2K8); settings: GCN2, read-out: percent inhibition
GSK3A = GSK3A (Homo sapiens (Human), UniProt P49840); settings: GSK3A, read-out: percent inhibition
IRE1 = IRE1 (Homo sapiens (Human), UniProt O75460); settings: IRE1, read-out: percent inhibition
JAK1 = JAK1 (Homo sapiens (Human), UniProt P23458); settings: JAK1, read-out: percent inhibition
JAK2 domain2 = JAK2 domain2 (Homo sapiens (Human), UniProt O60674); settings: JAK2 domain2, read-out: percent inhibition
Chain of JAK2 domain2 (O60674 whole entry, the tested form may be a part): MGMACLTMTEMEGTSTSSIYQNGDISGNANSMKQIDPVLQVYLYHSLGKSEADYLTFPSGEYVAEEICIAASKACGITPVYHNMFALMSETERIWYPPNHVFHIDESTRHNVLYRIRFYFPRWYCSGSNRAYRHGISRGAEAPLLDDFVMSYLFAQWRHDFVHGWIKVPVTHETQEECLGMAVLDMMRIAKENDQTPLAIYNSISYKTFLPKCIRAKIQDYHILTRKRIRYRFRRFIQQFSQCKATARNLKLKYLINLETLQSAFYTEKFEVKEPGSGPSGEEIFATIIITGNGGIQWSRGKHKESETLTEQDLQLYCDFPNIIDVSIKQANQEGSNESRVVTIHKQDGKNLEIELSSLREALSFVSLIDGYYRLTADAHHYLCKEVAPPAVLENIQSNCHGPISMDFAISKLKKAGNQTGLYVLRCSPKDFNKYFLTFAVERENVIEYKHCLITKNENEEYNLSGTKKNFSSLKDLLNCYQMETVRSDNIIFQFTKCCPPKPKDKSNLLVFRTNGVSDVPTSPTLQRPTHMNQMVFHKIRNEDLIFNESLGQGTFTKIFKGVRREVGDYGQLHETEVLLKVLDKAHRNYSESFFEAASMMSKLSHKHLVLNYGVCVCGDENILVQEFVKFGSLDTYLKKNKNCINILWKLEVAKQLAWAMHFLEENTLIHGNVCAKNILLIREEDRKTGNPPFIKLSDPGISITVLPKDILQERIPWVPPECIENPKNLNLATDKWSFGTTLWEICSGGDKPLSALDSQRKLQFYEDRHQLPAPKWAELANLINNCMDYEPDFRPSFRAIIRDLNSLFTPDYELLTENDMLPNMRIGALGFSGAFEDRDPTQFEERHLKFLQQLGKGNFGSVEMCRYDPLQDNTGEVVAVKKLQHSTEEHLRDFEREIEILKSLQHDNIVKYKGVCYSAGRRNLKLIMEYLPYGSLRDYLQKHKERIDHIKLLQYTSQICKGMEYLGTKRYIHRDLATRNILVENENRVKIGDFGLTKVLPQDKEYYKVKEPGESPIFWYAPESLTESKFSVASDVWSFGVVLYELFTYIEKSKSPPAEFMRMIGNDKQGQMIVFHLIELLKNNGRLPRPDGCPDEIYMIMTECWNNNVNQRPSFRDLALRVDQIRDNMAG

KSR1, KSR2 = system: KSR1, KSR2
LATS2 = LATS2 (Homo sapiens (Human), UniProt Q9NRM7); settings: LATS2, read-out: percent inhibition
MAP3K1 = MAP3K1 (Homo sapiens (Human), UniProt Q13233); settings: MAP3K1, read-out: percent inhibition
MARK3 = MARK3 (Homo sapiens (Human), UniProt P27448); settings: MARK3, read-out: percent inhibition
MAST3 = MAST3 (Homo sapiens (Human), UniProt O60307); settings: MAST3, read-out: percent inhibition
MSK1 domain1 = MSK1 domain1 (Homo sapiens (Human), UniProt O75582); settings: MSK1 domain1, read-out: percent inhibition
NEK6, NEK7 = system: NEK6, NEK7
OSR1 = OSR1 (Homo sapiens (Human), UniProt O95747); settings: OSR1, read-out: percent inhibition
p38d, p38g = system: p38d, p38g
p70S6K = p70S6K (Homo sapiens (Human), UniProt P23443); settings: p70S6K, read-out: percent inhibition
p70S6K, p70S6Kb = system: p70S6K, p70S6Kb
PCTAIRE2, PCTAIRE3 = system: PCTAIRE2, PCTAIRE3
PIK3CD = PIK3CD (Homo sapiens (Human), UniProt O00329); settings: PIK3CD, read-out: percent inhibition
Chain of PIK3CD (O00329 whole entry): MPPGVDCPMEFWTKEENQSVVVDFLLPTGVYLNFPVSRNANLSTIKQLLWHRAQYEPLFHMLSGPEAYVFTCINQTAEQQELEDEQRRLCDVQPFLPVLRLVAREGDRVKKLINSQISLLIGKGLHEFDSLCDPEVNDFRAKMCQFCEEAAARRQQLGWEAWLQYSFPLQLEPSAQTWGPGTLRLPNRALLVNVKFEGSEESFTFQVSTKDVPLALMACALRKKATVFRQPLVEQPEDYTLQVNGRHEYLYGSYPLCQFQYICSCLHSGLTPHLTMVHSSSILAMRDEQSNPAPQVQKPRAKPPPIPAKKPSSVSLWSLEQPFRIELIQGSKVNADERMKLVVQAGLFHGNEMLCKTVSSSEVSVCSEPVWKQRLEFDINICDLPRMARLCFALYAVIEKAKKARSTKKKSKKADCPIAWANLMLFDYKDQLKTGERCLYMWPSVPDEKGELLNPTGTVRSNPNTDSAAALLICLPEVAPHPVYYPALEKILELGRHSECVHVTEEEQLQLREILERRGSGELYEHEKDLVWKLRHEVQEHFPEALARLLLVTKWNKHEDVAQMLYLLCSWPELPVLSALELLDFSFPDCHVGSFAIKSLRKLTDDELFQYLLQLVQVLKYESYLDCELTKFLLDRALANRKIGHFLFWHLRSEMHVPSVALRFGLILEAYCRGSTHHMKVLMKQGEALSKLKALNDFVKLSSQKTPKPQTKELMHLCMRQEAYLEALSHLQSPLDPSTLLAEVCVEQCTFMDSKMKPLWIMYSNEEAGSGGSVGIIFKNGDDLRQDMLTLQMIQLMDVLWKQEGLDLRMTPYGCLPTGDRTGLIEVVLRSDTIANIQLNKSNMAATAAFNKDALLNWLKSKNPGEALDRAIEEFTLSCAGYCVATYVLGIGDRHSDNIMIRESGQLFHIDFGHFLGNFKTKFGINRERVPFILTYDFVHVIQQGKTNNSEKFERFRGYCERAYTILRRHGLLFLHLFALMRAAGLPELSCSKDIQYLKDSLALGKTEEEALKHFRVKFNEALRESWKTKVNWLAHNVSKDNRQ
Chain of PIK3CD (P27986 whole entry partner): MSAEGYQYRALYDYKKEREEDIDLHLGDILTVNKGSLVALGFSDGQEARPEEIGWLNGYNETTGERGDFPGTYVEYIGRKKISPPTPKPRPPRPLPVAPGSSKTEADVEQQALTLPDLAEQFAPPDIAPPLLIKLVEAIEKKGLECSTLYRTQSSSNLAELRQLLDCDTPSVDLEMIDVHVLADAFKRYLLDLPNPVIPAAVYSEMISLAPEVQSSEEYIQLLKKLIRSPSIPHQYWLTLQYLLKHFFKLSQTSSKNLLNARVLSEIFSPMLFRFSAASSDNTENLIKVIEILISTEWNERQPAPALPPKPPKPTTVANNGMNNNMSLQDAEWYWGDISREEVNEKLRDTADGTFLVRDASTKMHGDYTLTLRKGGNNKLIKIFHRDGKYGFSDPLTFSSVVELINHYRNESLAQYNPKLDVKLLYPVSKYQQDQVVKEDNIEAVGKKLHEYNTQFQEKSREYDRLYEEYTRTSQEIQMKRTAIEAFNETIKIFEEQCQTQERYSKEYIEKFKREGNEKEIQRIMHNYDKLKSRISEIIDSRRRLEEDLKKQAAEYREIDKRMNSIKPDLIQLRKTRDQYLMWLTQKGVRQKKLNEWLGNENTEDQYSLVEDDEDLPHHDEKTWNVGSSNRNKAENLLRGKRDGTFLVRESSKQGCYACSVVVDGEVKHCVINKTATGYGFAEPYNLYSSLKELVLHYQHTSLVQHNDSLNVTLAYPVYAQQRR

PIP4K2A = PIP4K2A (Homo sapiens (Human), UniProt P48426); settings: PIP4K2A, read-out: percent inhibition
Chain of PIP4K2A (P48426 whole entry): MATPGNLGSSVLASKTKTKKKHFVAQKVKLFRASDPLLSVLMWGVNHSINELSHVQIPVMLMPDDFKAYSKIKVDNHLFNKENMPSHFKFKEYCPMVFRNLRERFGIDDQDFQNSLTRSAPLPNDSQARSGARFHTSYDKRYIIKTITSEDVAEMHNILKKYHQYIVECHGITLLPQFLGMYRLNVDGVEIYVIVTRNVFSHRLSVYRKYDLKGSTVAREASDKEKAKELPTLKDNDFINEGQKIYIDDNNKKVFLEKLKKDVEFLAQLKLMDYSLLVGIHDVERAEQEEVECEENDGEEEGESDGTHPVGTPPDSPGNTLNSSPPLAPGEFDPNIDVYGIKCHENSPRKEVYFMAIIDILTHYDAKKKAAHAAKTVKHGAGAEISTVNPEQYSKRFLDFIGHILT

PKR = PKR (Homo sapiens (Human), UniProt P19525); settings: PKR, read-out: percent inhibition
PYK2 = PYK2 (Homo sapiens (Human), UniProt Q14289); settings: PYK2, read-out: percent inhibition
SGK3 = SGK3 (Homo sapiens (Human), UniProt Q96BR1); settings: SGK3, read-out: percent inhibition
STLK5 = STLK5 (Homo sapiens (Human), UniProt Q7RTN6); settings: STLK5, read-out: percent inhibition
ULK3 = ULK3 (Homo sapiens (Human), UniProt Q6PHR2); settings: ULK3, read-out: percent inhibition
ZAP70 = ZAP70 (Homo sapiens (Human), UniProt P43403); settings: ZAP70, read-out: percent inhibition

Chain of BRAF (P15056 whole entry): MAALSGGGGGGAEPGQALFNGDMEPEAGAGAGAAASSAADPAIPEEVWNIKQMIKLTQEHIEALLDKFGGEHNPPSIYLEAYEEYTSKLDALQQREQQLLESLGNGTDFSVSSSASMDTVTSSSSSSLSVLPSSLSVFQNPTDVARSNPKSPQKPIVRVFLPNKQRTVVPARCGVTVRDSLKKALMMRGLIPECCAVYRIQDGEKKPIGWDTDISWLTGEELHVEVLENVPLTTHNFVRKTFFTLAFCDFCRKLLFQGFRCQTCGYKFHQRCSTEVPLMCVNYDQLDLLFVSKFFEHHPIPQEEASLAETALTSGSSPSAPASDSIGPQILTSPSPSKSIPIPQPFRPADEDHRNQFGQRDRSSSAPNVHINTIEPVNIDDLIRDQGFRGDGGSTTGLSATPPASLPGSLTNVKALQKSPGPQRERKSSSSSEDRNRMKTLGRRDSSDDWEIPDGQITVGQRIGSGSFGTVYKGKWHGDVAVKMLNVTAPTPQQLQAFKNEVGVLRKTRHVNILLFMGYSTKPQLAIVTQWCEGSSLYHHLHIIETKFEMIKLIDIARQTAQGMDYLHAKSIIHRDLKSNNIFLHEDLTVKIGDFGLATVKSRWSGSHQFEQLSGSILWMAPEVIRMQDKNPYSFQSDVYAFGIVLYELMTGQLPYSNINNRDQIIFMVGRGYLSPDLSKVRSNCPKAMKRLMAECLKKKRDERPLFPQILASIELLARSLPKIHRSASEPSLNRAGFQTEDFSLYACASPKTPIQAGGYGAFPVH

Q: With `Cn1cc(-c2c[nH]c3ncnc(N4CCOCC4)c23)cc1C#N` [Example 217, 1-methyl-4-[4-(morpholin-4-yl)-7H-pyrrolo[2,3-d]pyrimidin-5-yl]-1H-pyrrole-2-carbonitrile] as the compound, how does the percent inhibition (ABL, ARG; 0.1 μM) read?
A: 4.6%

Q: And the percent inhibition (ABL, ARG; 1 μM)?
A: −1.6%

Q: And the percent inhibition (AKT2, AKT3; 0.1 μM)?
A: −9.7%

Q: And the percent inhibition (AKT2, AKT3; 1 μM)?
A: −3.8%

Q: What about the inhibition at 0.1 µM (AMPKa1; 0.1 μM) of the same compound?
A: 27.2%

Q: What about the inhibition at 1 µM (AMPKa1; 1 μM) of the same compound?
A: 48.8%

Q: And the percent inhibition (AMPKa1, AMPKa2; 0.1 μM)?
A: 5.7%

Q: What about the percent inhibition (AMPKa1, AMPKa2; 1 μM) of the same compound?
A: 16.5%

Q: What about the inhibition at 0.1 µM (BRAF; 0.1 μM) of the same compound?
A: -8.4%

Q: And the inhibition at 1 µM (BRAF; 1 μM)?
A: -10.4%

Q: What about the inhibition at 0.1 µM (CaMK2d; 0.1 μM) of the same compound?
A: 9.8%

Q: What about the inhibition at 1 µM (CaMK2d; 1 μM) of the same compound?
A: 16.1%

Q: What about the inhibition at 0.1 µM (CaMK2g; 0.1 μM) of the same compound?
A: 4.3%

Q: And the inhibition at 1 µM (CaMK2g; 1 μM)?
A: 18.7%

Q: What about the inhibition at 0.1 µM (DGKA; 0.1 μM) of the same compound?
A: -2.8%

Q: What about the inhibition at 1 µM (DGKA; 1 μM) of the same compound?
A: 4.7%

Q: And the inhibition at 0.1 µM (EphA1; 0.1 μM)?
A: 11.1%

Q: What about the inhibition at 1 µM (EphA1; 1 μM) of the same compound?
A: -16.1%

Q: What about the inhibition at 0.1 µM (Erk5; 0.1 μM) of the same compound?
A: -2.6%

Q: What about the inhibition at 1 µM (Erk5; 1 μM) of the same compound?
A: -5.4%

Q: And the inhibition at 0.1 µM (FGR; 0.1 μM)?
A: -1.2%

Q: And the inhibition at 1 µM (FGR; 1 μM)?
A: -0.5%

Q: And the inhibition at 0.1 µM (GCN2; 0.1 μM)?
A: -7.7%

Q: What about the inhibition at 1 µM (GCN2; 1 μM) of the same compound?
A: -3.1%

Q: What about the inhibition at 0.1 µM (GSK3A; 0.1 μM) of the same compound?
A: 0.6%

Q: And the inhibition at 1 µM (GSK3A; 1 μM)?
A: 8.9%

Q: And the inhibition at 0.1 µM (IRE1; 0.1 μM)?
A: 3.2%

Q: What about the inhibition at 1 µM (IRE1; 1 μM) of the same compound?
A: -19.5%

Q: And the inhibition at 0.1 µM (JAK1; 0.1 μM)?
A: -3%

Q: And the inhibition at 1 µM (JAK1; 1 μM)?
A: 11.4%

Q: And the inhibition at 0.1 µM (JAK2 domain2; 0.1 μM)?
A: 4.8%

Q: And the inhibition at 1 µM (JAK2 domain2; 1 μM)?
A: -6.4%

Q: And the percent inhibition (KSR1, KSR2; 0.1 μM)?
A: −6.2%

Q: And the percent inhibition (KSR1, KSR2; 1 μM)?
A: −6.8%

Q: And the inhibition at 0.1 µM (LATS2; 0.1 μM)?
A: 5.8%

Q: And the inhibition at 1 µM (LATS2; 1 μM)?
A: -23.7%

Q: What about the inhibition at 0.1 µM (MAP3K1; 0.1 μM) of the same compound?
A: -17.3%

Q: And the inhibition at 1 µM (MAP3K1; 1 μM)?
A: 14.8%

Q: And the inhibition at 0.1 µM (MARK3; 0.1 μM)?
A: 16.2%

Q: And the inhibition at 1 µM (MARK3; 1 μM)?
A: 18.4%

Q: And the inhibition at 0.1 µM (MAST3; 0.1 μM)?
A: -11.7%

Q: And the inhibition at 1 µM (MAST3; 1 μM)?
A: 0.4%

Q: What about the inhibition at 0.1 µM (MSK1 domain1; 0.1 μM) of the same compound?
A: -12.1%

Q: What about the inhibition at 1 µM (MSK1 domain1; 1 μM) of the same compound?
A: -2.2%

Q: And the percent inhibition (NEK6, NEK7; 0.1 μM)?
A: −2.9%

Q: What about the percent inhibition (NEK6, NEK7; 1 μM) of the same compound?
A: 6.4%

Q: And the inhibition at 0.1 µM (OSR1; 0.1 μM)?
A: 5.2%

Q: And the inhibition at 1 µM (OSR1; 1 μM)?
A: -12.3%

Q: What about the percent inhibition (p38d, p38g; 0.1 μM) of the same compound?
A: −0.4%

Q: What about the percent inhibition (p38d, p38g; 1 μM) of the same compound?
A: 1.5%

Q: And the inhibition at 0.1 µM (p70S6K; 0.1 μM)?
A: 3.5%

Q: What about the inhibition at 1 µM (p70S6K; 1 μM) of the same compound?
A: -9.6%

Q: What about the percent inhibition (p70S6K, p70S6Kb; 0.1 μM) of the same compound?
A: 5.5%

Q: And the percent inhibition (p70S6K, p70S6Kb; 1 μM)?
A: 5.4%

Q: And the percent inhibition (PCTAIRE2, PCTAIRE3; 0.1 μM)?
A: −2.6%

Q: And the percent inhibition (PCTAIRE2, PCTAIRE3; 1 μM)?
A: 15.1%

Q: What about the inhibition at 0.1 µM (PIK3CD; 0.1 μM) of the same compound?
A: -0.4%

Q: And the inhibition at 1 µM (PIK3CD; 1 μM)?
A: 10%

Q: And the inhibition at 0.1 µM (PIP4K2A; 0.1 μM)?
A: 7.8%

Q: And the inhibition at 1 µM (PIP4K2A; 1 μM)?
A: 8.2%

Q: What about the inhibition at 0.1 µM (PKR; 0.1 μM) of the same compound?
A: -7.7%

Q: What about the inhibition at 1 µM (PKR; 1 μM) of the same compound?
A: 1.8%

Q: What about the inhibition at 0.1 µM (PYK2; 0.1 μM) of the same compound?
A: -1%

Q: What about the inhibition at 1 µM (PYK2; 1 μM) of the same compound?
A: 8.4%

Q: And the inhibition at 0.1 µM (SGK3; 0.1 μM)?
A: 8.5%

Q: And the inhibition at 1 µM (SGK3; 1 μM)?
A: 16.9%

Q: And the inhibition at 0.1 µM (STLK5; 0.1 μM)?
A: -6.9%

Q: And the inhibition at 1 µM (STLK5; 1 μM)?
A: -11.5%

Q: What about the inhibition at 0.1 µM (ULK3; 0.1 μM) of the same compound?
A: -8.6%

Q: What about the inhibition at 1 µM (ULK3; 1 μM) of the same compound?
A: 17.4%

Q: What about the inhibition at 0.1 µM (ZAP70; 0.1 μM) of the same compound?
A: -25%

Q: What about the inhibition at 1 µM (ZAP70; 1 μM) of the same compound?
A: -6%

Reference: patent US9156845B2, “4-(substituted amino)-7H-pyrrolo[2,3-d] pyrimidines as LRRK2 inhibitors” (Pfizer Inc., priority 2012, dated 2015)
